In article PMC12051620, “Molecular basis underlying the specificity of an antagonist AA92593 for mammalian melanopsins” (The Journal of Biological Chemistry, 2025):

How the values were obtained:
Assay in all cases: GsX GloSensor assay with Gsα/q11
Type in all cases: cell-based
[1] = target: T1, human melanopsin F94^2.61C/S188^ECL2T/S269^6.52A mutant (Homo sapiens, UniProt Q9UHM6, F127C/S222T/S313A); details: 16.7 μM AA92593, COS-1 cells
T1 construct: expressed in transfected cells; host or cells: COS-1
T1 sequence (Q9UHM6 1-384 F127C/S222T/S313A): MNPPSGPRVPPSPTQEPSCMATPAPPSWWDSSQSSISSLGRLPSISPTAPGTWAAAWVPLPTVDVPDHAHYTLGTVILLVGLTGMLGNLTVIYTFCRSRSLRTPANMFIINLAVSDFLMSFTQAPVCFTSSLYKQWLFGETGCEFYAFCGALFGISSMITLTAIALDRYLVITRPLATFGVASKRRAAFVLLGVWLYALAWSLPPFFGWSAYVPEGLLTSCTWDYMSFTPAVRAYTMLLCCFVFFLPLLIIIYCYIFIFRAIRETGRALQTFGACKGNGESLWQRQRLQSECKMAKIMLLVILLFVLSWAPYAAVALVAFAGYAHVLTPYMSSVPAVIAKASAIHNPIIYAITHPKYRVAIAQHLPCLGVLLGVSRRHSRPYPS
Excerpt: (§1) The single substitutions F94^2.61C, S188^ECL2T, and S269^6.52A in mammalian melanopsins reduced the inhibitory effects of AA92593 (Figs. 2G and 3E). We suspected that the combination of these substitutions would further decrease the AA92593 effect. We thus introduced the triple substitutions F94^2.61C/S188^ECL2T/S269^6.52A into human and mouse melanopsins and examined the inhibitory effects of AA92593. In both mammalian melanopsins, the F94^2.61C/S188^ECL2T/S269^6.52A substitution reduced the inhibitory effect of AA92593 more than the single substitutions (∼63% and ∼35% reductions for human and mouse melanopsins, respectively) (Figs. 2, F and G, 3, D and E).
(§2) For GloSensor assay, opsins, GloSensor assay sensor (coded by pGlo-22F), and NanoBiT-tagged G proteins were transiently expressed in COS-1 cells (kindly provided from Dr David Farrens, Oregon Health and Science University) using PEI as described previously ([24], [52]). For the GsX GloSensor assay ([12], [13]), each well of a 96-well assay plate (Corning) was transfected with 50 ng opsin plasmid, 16.7 ng G protein plasmid, 50 ng pGlo-22F plasmid (Promega), and 500 ng PEI in 25 μl Opti-mem and 75 μl Dulbecco's modified Eagle's medium (D-MEM). […] For GFP-fluorescence microscopy, a 35-mm cell culture dish (IWAKI) was transfected with 2 μg melanopsin-GFP plasmid and 8 μg PEI in 400 μl Opti-mem and 1.2 ml D-MEM. […]

[2] = target: T2, mouse melanopsin F94^2.61C/S188^ECL2T/S269^6.52A mutant (Mus musculus, UniProt Q9QXZ9, F126C/S221T/S310A); details: 16.7 μM AA92593, COS-1 cells
T2 construct: expressed in transfected cells; host or cells: COS-1
T2 sequence (Q9QXZ9 1-381 F126C/S221T/S310A): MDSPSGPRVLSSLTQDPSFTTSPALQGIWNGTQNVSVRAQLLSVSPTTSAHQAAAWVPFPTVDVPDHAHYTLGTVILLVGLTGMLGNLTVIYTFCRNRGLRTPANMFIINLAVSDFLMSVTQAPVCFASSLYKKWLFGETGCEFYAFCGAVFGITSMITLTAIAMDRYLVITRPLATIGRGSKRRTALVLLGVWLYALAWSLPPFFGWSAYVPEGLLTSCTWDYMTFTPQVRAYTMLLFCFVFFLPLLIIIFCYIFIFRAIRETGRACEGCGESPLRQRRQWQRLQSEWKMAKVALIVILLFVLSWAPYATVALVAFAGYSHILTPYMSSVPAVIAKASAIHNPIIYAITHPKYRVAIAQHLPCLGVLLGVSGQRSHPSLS
Excerpt: as §1, §2

[3] = tested on: human melanopsin S188^ECL2T mutant; details: 16.7 μM AA92593, COS-1 cells
Excerpt: (§3) We substituted the residues Phe-94^2.61, Ser-188^ECL2, and Ser-269^6.52 in human melanopsin (Fig. 2, A and B) and examined the inhibitory effect of AA92593 on these mutants. Substitution of these amino acid residues with the corresponding amino acids in non-mammalian-type melanopsins (F94^2.61C, S188^ECL2T, and S269^6.52A) reduced the inhibitory effect of AA92593 compared to its effect on WT (Fig. 2, C–E). […] The antagonistic effect of AA92593 was reduced by ∼21% and ∼24% in the S188^ECL2T and S269^6.52A mutants, respectively (Fig. 2, D, E, and G). […] The volume change in side chain would affect arrangement of the amino acid residues around AA92593 (see below).
as §2
(§4) The transfected COS-1 cells were incubated at 37 °C, 5% CO2 for 2 days, and the medium was aspirated and exchanged with 50 μl of HBSS (145 mM NaCl, 10 mM D-glucose, 5 mM KCl, 1 mM MgCl2, 1.7 mM CaCl2, 1.5 mM NaHCO3, 10 mM Hepes, pH 7.4), containing 33.3, 20, 10, 2, 0.2, 0.02, 0.002, or 0 μM AA92593, 0.5% dimetyl sulfoxide (DMSO), and 4% (vol/vol) GloSensor cAMP reagent stock solution. […] Then, the cells were incubated at room temperature for 1 h, and luminescence changes were monitored. After incubation of the cells with AA92593, luminescence measurement was interrupted, the plate was ejected, and the cells were added with 50 μl of HBSS containing 0.2 μM 9-cis-retinal. […] Luminescence was measured using GM-2000 or GM-3510 microplate reader (Promega). Luminescence level of each well was measured every 30 s with integration time of 0.6 to 0.9 s. To illuminate opsins, luminescence measurement was interrupted, the plate was ejected, and the plate was illuminated by white light with CN-160 LED video light (light intensity, ∼9 mW/cm^2) (NEEWER). […] After illumination, luminescence measurement was resumed. The measured luminescence levels were normalized to the level at the starting point (time = 0 min). […]

[4] = tested on: human melanopsin S269^6.52A mutant; details: 16.7 μM AA92593, COS-1 cells
Excerpt: as §3, §2, §4

[5] = target: T3, human melanopsin F94^2.61C mutant (Homo sapiens, UniProt Q9UHM6, F127C); details: 16.7 μM AA92593, COS-1 cells, difference not statistically significant
T3 construct: the C-terminal amino acid residues (94, 140, 200, 214, 296, and 308 residues); expressed in transfected cells; host or cells: COS-1
T3 sequence (Q9UHM6 1-384 F127C limits assumed): as the sequence (Q9UHM6 1-384 F127C/S222T/S313A) above, with T222S, A313S counted along it
Excerpt: as §3, §2, §4

[6] = target: T4, human melanopsin S188^ECL2A mutant (Homo sapiens, UniProt Q9UHM6, S222A); details: 16.7 μM AA92593, COS-1 cells
T4 construct: expressed in transfected cells; host or cells: COS-1
T4 sequence (Q9UHM6 1-384 S222A limits assumed): as the sequence (Q9UHM6 1-384 F127C/S222T/S313A) above, with C127F, T222A, A313S counted along it
Excerpt: as §3, §2, §4

## COc1ccc(S(=O)(=O)N2CCCCC2)cc1C [AA92593]
[1]
  reduction of the inhibitory effect of AA92593 vs WT: ~63%
[2]
  reduction of the inhibitory effect of AA92593 vs WT: ~35%
[3]
  reduction of the antagonistic effect of AA92593 vs WT: ~21%
[4]
  reduction of the antagonistic effect of AA92593 vs WT: ~24%
[5]
  inhibitory effect of AA92593 compared to WT: consistently weaker
[6]
  change in the effect of AA92593 vs WT: did not induce a significant change
